Laboratory results from the NIST ThermoML archive (doi:10.1016/j.jct.2005.04.009).
± gives the expanded uncertainty stated by the source.

Columns and labels:
[1] = wn = mass fraction of the nth substance listed; conditions: 100 kPa, Liquid, Alternating current cell with electrodes
[2] = 101.33 kPa, Liquid, Alternating current cell with electrodes

SMILES	electrical conductivity ([1]; 288.15 K, w2 = 1e-05)	electrical conductivity ([1]; 288.15 K, w2 = 8e-05)	electrical conductivity ([1]; 288.15 K, w2 = 0.00102)	electrical conductivity ([1]; 288.15 K, w2 = 0.00885)	electrical conductivity ([1]; 293.15 K, w2 = 1e-05)	electrical conductivity ([1]; 293.15 K, w2 = 8e-05)	electrical conductivity ([1]; 293.15 K, w2 = 0.00102)	electrical conductivity ([1]; 293.15 K, w2 = 0.00885)	electrical conductivity ([1]; 298.15 K, w2 = 1e-05)	electrical conductivity ([1]; 298.15 K, w2 = 8e-05)	electrical conductivity ([1]; 298.15 K, w2 = 0.00102)	electrical conductivity ([1]; 298.15 K, w2 = 0.00885)	electrical conductivity ([2]; 288.15 K)	electrical conductivity ([2]; 293.15 K)	electrical conductivity ([2]; 298.15 K)	electrical conductivity ([2]; 308.15 K)	electrical conductivity ([2]; 323.15 K)
CCCC[n+]1ccn(C)c1.O=S(=O)([N-]S(=O)(=O)C(F)(F)F)C(F)(F)F + O	0.265 ± 0.02 S/m	0.266 ± 0.02 S/m	0.277 ± 0.02 S/m	0.365 ± 0.021 S/m	0.331 ± 0.02 S/m	0.332 ± 0.02 S/m	0.345 ± 0.02 S/m	0.449 ± 0.021 S/m	0.406 ± 0.02 S/m	0.408 ± 0.02 S/m	0.422 ± 0.02 S/m	0.542 ± 0.022 S/m					
CCCC[n+]1ccn(C)c1.O=S(=O)([N-]S(=O)(=O)C(F)(F)F)C(F)(F)F													0.265 ± 0.02 S/m	0.331 ± 0.02 S/m	0.406 ± 0.02 S/m	0.585 ± 0.02 S/m	0.924 ± 0.02 S/m
CCn1cc[n+](C)c1.O=S(=O)([N-]S(=O)(=O)C(F)(F)F)C(F)(F)F													0.644 ± 0.02 S/m	0.773 ± 0.02 S/m	0.912 ± 0.02 S/m	1.23 ± 0.02 S/m	1.79 ± 0.02 S/m
CCCCn1cc[n+](C)c1.F[P-](F)(F)(F)(F)F [1-butyl-3-methylimidazolium hexafluorophosphate]													0.079 ± 0.02 S/m	0.109 ± 0.02 S/m	0.146 ± 0.02 S/m	0.247 ± 0.02 S/m	0.477 ± 0.02 S/m
CCCCCC[n+]1ccn(C)c1.O=S(=O)([N-]S(=O)(=O)C(F)(F)F)C(F)(F)F													0.135 ± 0.02 S/m	0.173 ± 0.02 S/m	0.218 ± 0.02 S/m	0.327 ± 0.02 S/m	0.546 ± 0.02 S/m
